Key:
APP/PS1 transgenic mice [1] = assay: Morris water maze (MWM); type: in vivo; settings: B14 10, 20, 40 mg/kg i.p. every other day; vs model group
From the text: Five months old male APP/PS1 mice, weighing 25–33 g, were purchased from Guangdong Medical Laboratory Animal Center and housed in the Laboratory Animal Center of Sun Yat-sen University (Guangzhou, China) for experimentation. All procedures were approved by the Animal Care and Use Committee of Sun Yat-sen University and complied with legal requirements and national guidelines for the care and maintenance of laboratory animals (Approval No. SYSU-IACUC-2024-002032). The mice were housed in a specific pathogen-free environment with a controlled temperature of 22 ± 1 °C and a 12-h dark/light cycle. The mice were fed with a standard diet, and 30 mice were randomly divided into 6 groups (N = 5). Compound B14 was dissolved in saline and administered at doses of 10, 20, or 40 mg/kg. […]
The spatial memory and learning abilities of the mice were assessed using Morris water maze (MWM), novel object recognition (NOR) and nesting experiments (NBT). The anxiety and depressive behaviors were evaluated through the open field test (OFT) and elevated plus maze (EPM). […]
Morris water maze (MWM) system consisted of a heated circular pool, a target platform, and a video capture with analysis system. […] The time taken to find the platform (latency) was recorded. […] The platform was removed, and the mice were monitored for 60 seconds. […]

APP/PS1 transgenic mice [2] = assay: Histopathological examination (HE) of vital organs; settings: mouse, in vivo
From the text: Five months old male APP/PS1 mice, weighing 25–33 g, were purchased from Guangdong Medical Laboratory Animal Center and housed in the Laboratory Animal Center of Sun Yat-sen University (Guangzhou, China) for experimentation. All procedures were approved by the Animal Care and Use Committee of Sun Yat-sen University and complied with legal requirements and national guidelines for the care and maintenance of laboratory animals (Approval No. SYSU-IACUC-2024-002032). The mice were housed in a specific pathogen-free environment with a controlled temperature of 22 ± 1 °C and a 12-h dark/light cycle. The mice were fed with a standard diet, and 30 mice were randomly divided into 6 groups (N = 5). Compound B14 was dissolved in saline and administered at doses of 10, 20, or 40 mg/kg. APP/PS1 male mice were grown until 6 months of age, and then injected intraperitoneally with compound B14 every other day for 60 days. Behavioral experiments were then conducted, and tissue specimens were collected for biochemical analysis.
The mice were sacrificed, with their brains and organs isolated and embedded in paraffin. The brains and organs were then sectioned into 6 μm thin slices. These slices were subjected to H&E or Nissl staining (Servicebio, Guangzhou, China). The stained sections were subsequently imaged and analyzed by using microscopy.
Figure S11. […]

[3] = test system: bEnd.3 in vitro BBB model; assay: Measurement of in vitro BBB transport (bEnd.3 transwell); type: in vitro ADME
Method: bEnd.3 (10 × 10^4 cells/well) was cultured in the upper chamber of a 12 wells-plate within a transwell system. The transepithelial electrical resistance (TEER) was measured to monitor the tightness of the monolayer, and the monolayer of cells with a minimum of 200 Ω cm^2 was used for further experiments.

Aβ1-42 = target: T1, Aβ1-42 (Homo sapiens, UniProt P05067); assay: Thioflavine T (ThT) assay of self-induced Aβ1-42 aggregation; type: biochemical
T1 construct: Aβ1-42 was purchased from Gill Biochemicals Ltd (Shanghai, China); purchased Gill Biochemicals Ltd (Shanghai, China)
Method: The experiment was performed following standardized amyloid detection protocols without significant modification. Curcumin (Aladdin, Shanghai, China), a natural inhibitor of Aβ deposition, was used as a positive control with ThT (Aladdin, Shanghai, China) as a fluorescent indicator. 30 μL of freshly formulated Aβ1-42 (30 μM) was incubated without or with A1-16, B1-14, Curcumin at concentration of 40 μM for 24h. Then, it was mixed with 400 μL of freshly formulated ThT (15 μM), which was incubated in the dark for 30 min. Fluorescence signals were recorded using a fluorescence spectrophotometer, and changes in Aβ fibre deposition were determined through the strength of the fluorescence signals. The scanning conditions were set as follows: excitation wavelength at 440 nm, emission wavelength at 480 nm, and slit width of 20 nm.
^a Self-induced Aβ1-42 aggregation (means ± SD of three experiments). The thioflavin-T fluorescence method was used, and the measurements were carried out in the presence of 40 μM test compound. […]
[picture] […] The fluorescence intensity of different concentrations of B14 was measured after incubation with Aβ1-42. Data were statistically analyzed as mean ± SEM. (A) ThT fluorescence intensity. (B) IC50 value for B14 against Aβ1-42 aggregation was determined by using ThT fluorescence intensity.

[4] = test system: BCL-2 promoter G-quadruplex; assay: CD melting experiment, BCL-2 G-quadruplex; type: binding; settings: Tris-HCl buffer pH 7.4; 20 equivalents (20 μM) compound
Method: CD-melting experiment was carried out following a published method without significant modification. BCL-2 promoter i-motif and G-quadruplex structures at a concentration of 5 μM were annealed in buffer at 95 °C for 10 min, and then cooled to room temperature. The annealed samples were incubated with B14 for 6 h, and then molar ellipticity at 287 nm for i-motif structure or 260 nm for G-quadruplex structure, where the CD value was the highest in our experiment, was measured over a temperature range of 20–90 °C at a heating rate of 0.5 °C/min. Tm values were determined and calculated through nonlinear regression curve fitting with software GraphPad Prism 9.0. (GraphPad Software Inc., California, USA).
Figure S6. CD melting experiments were performed to examine the effects of B14 and A22 on BCL-2 promoter i-motif and G-quadruplex. (A-H) CD melting experiments were performed for BCL-2 promoter i-motif or G-quadruplex in the absence or presence of B14 (2, 5, 20 equivalents) and A22 (20 equivalents). The oligonucleotide for BCL-2 i-motif was annealed in 1 X BPES buffer at pH 5.5, while the oligonucleotide for BCL-2 G-quadruplex was annealed in 20 mM Tris-HCl buffer with 20 mM NaCl at pH 7.4. The ΔTm values for the effects of B14 and A22 on BCL-2 promoter i-motif were determined to be 11.26 °C and 11.82 °C, respectively. […]

T1 sequence (P05067 672-713 limits assumed): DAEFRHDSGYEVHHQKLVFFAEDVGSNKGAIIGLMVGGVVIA

O=C(CCN1CCOCC1)Nc1ccc2c(c1)c(=O)c1cc(NC(=O)CCN3CCOCC3)ccc1n2-c1ccc2occc2c1 [Compound B14] was tested. Which “escape latency (MWM)” value (APP/PS1 transgenic mice [1]) did it give?
The value was “significantly short”.

What about the “number for the mice to cross the platform (MWM)” value (APP/PS1 transgenic mice [1]) of the same compound?
The value was “significantly increased”.

What about the “histopathology of heart, liver, spleen, lungs, kidney” value (APP/PS1 transgenic mice [2]) of the same compound?
Its value is “no significant detrimental effect for these organs”.

What about the Permeability ([3]; 6 h) of the same compound?
Its Permeability is 45.80%.

And the Permeability ([3]; 24 h)?
The Permeability was 55.74%.

What about the inhibition at 40 µM (Aβ1-42; 40 μM compound, ThT fluorescence, read-out: inhibition of Aβ self-aggregation) of the same compound?
The inhibition at 40 µM was 78.4%.

What about the IC50 (Aβ1-42; ThT fluorescence intensity, read-out: IC50 against Aβ1-42 aggregation) of the same compound?
Its IC50 is 24 µM.

And the “ΔTm (CD melting)” value [4]?
Its value is −3.13 °C.
